Consider one substance from patent US10532085B2, “Methods for increasing intracellular activity of Hsp70” (Orphazyme A/S, priority 2010, dated 2020).

The test system of one assay is U2OS osteosarcoma cells. Briefly: Endocytic uptake of Alexa Fluor-488-labelled BSA (BSA*). Type of assay: cell-based, Human. Conditions: 20 μg/mL BSA* for 24 h with 3000 nM rHsp70 vs BSA* alone. How it is done: FIG. 4: Hsp70 increases endocytic uptake of other molecules. Panel A: immortalized mouse embryonic fibroblasts (iMEF), either wildtype (WT) or transgenic for Hsp70 (TG) where incubated with 20 μg/mL Alexa Fluor-488-labelled BSA (BSA*) for 24 h. Endocytic uptake was verified by fluorescence microscopy (not shown). Cells where then harvested and analyzed for uptake of BSA*. […] Panel B: U2OS osteosarcoma cells where incubated with 20 μg/mL BSA* for 24 h either with 3000 nM rHsp70 or without as indicated. Endocytic uptake was verified by fluorescence microscopy (not shown). Cells where then harvested and analyzed for uptake of BSA*.

For assay [1], the system named is primary fibroblasts from Mucopolysaccharidosis type IIIA patient. Description: Lysosomal cross-sectional area, laser confocal microscopy, MPS IIIA fibroblasts. It is filed as cell-based, human. Conditions: Alexa Fluor 488 labelled, added for 48 h; GM00879. How it is done: FIG. 8: Test of rhHSP70 in non-sphingolipidosis. rhHSP70 labelled with Alexa Fluor 488 (for visualization of uptake) was added for 48 h to primary fibroblasts from Mucopolysaccharidosis type IIIA (aka Sanfilippo type IIIA) patient (Coriell Cell Repository ID: GM00879). Read-out: lysosomal cross-sectional area (Primary cellular pathology), performed by laser confocal microscopy.

Assay [2] in a line: Liposome 90° light scattering, LUVs with negatively charged lipids. It is filed as binding. As to conditions: neutral pH; irrespective of charge density (−1 to −2). The source says: Thus, we investigated the interaction of Hsp70 with palmitoyl-oleoyl-phosphatidylcholine (POPC) large unilamellar vesicles (LUVs) containing various membrane-associated anionic lipids, i.e. palmitoyl-oleoyl-phosphatidylserine (POPS; primarily in plasma membrane), cardiolipin (primarily mitochondrial) and BMP (primarily in late endosomes/lysosomes). Taking into account the increasingly acidic milieu of the endo-lysosomal compartment upon maturation to lysosomes, we compared the protein-lipid interactions in neutral (pH 7.4) and acidic (pH 6.0) conditions. […] As reported earlier for POPS, all negatively charged lipids enhanced the binding of rHsp70 to the liposomes at neutral pH approximately 4-fold irrespective of the charge density on the liposome surface (ranging from −1 to −2).
The tryptophan fluorescence spectra (RFI) and liposome 90° light scattering (RSI) were analyzed in a HEPES buffer (20 mM HEPES, 0.1 mM EDTA, pH 7.4 or 6.0 as indicated) employing LUVs consisting of indicated lipids essentially as described in the art. For the RFI, LUVs were added in 10 μM aliquots and spectra recorded after a 20 min stabilization period. For the RSI, recombinant proteins were added in 0.12 nmol aliquots.

Assay [3] deals with NPC−/− mice. Description: NPC1 in vivo pilot study: growth curves. Conditions: 10 mg/kg IP three times per week from 3 weeks of age vs PBS. How it is done: FIG. 12: Control NPC−/− mice (A) have shallower and more sporadic growth patterns than HSP70 treated mice (B). Points where growth curves stop abruptly, indicates mice killed for organs. In panel A: Series 1 and 3 are female; Series 2 and 5-8 are male. In panel B: Series 2 and 4-7 are female; Series 1, 3, and 8 are male.
(§1) Eight treated (rHSP70) NPC^−/− versus eight control (PBS only) NPC^−/− controls. Mice were treated IP three times per week with either 10 mg/kg of rHSP70 or vehicle alone (PBS) from 3 weeks of age. Three control and three treated mice were sacrificed at 7 or 9 weeks old (i.e. after 4 or 6 weeks of treatment, respectively). Organs were perfused (PBS), weighed and frozen for biochemical and immunohistochemical analysis.

In assay [4] the test system is NPC−/− mice. Briefly: NPC1 in vivo pilot study: organ weights. As to conditions: 10 mg/kg IP three times per week; sacrificed at 7 or 9 weeks old. How it is done: as §1
The test system of assay [5] is NPC−/− mice. Briefly: NPC1 in vivo pilot study: gait analysis. As to conditions: 10 mg/kg IP three times per week. On the procedure:
as §1
Behavioural experiments were performed from 3 weeks of age, as described previously. Briefly, tremor analysis was performed using an automated tremor monitor (San Diego instruments) Gait analysis was performed by painting front and hind paws with non-toxic paint and allowing the mice to walk over Whatman 3M paper. Paw placement was measured to determine how closely their hind paws superimposed their front paws, the length of the stride and the width of their gait.

Consider “rHsp70: recombinant (human) heat shock protein 70; in some tests labelled with Alexa Fluor 488”, for which the “uptake of BSA*” value in the assay with U2OS osteosarcoma cells is recorded as “significantly higher uptake of BSA*”. For the same substance, the “lysosomal cross-sectional area (primary cellular pathology)” value in assay [1] is on record as “effectively reverts the lysosomal primary pathology”. Moreover, the “enhancement of binding to liposomes by negatively charged lipids” value in assay [2] was “approximately 4 fold”. The “growth curves (body weight)” value with NPC−/− mice [3] was “rise more steadily and reach higher weights”. In the assay on NPC−/− mice [4], the organ weights result was “No differences”. In addition, the “gait (front:hind paw placement, stride length, gait width)” value in the assay on NPC−/− mice [5] is “no difference”.
